Results published in ChEMBL document CHEMBL5550205, “Discovery of a NCOA4 Degrader for Labile Iron-Dependent Ferroptosis Inhibition” (J Med Chem, 2024).
The source made the active and inactive calls. The rule behind the calls is not given here.

Experiments:
[1] = target: von Hippel-Lindau disease tumor suppressor/Nuclear receptor coactivator 4 (Homo sapiens, UniProt P40337+Q13772); assay: PROTAC activity at NCOA4/VHL in human HeLa cells assessed as induction of NCOA4 degradation at 50 nM measured for 24 hrs by Western blot analysis; format: cell-based
AML12 = assay: Protection against CCl4-induced ferroptosis in mouse AML12 cells assessed as cell viability; format: functional, cell-based

Chain of von Hippel-Lindau disease tumor suppressor/Nuclear receptor coactivator 4 (P40337 whole entry, looked up): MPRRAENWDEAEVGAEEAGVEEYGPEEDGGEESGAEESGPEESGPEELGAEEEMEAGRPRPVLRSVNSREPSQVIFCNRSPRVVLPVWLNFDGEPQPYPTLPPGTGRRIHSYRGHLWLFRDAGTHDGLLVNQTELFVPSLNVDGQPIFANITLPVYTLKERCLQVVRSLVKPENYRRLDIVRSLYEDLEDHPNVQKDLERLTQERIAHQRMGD
Chain of von Hippel-Lindau disease tumor suppressor/Nuclear receptor coactivator 4 (Q13772 whole entry, looked up): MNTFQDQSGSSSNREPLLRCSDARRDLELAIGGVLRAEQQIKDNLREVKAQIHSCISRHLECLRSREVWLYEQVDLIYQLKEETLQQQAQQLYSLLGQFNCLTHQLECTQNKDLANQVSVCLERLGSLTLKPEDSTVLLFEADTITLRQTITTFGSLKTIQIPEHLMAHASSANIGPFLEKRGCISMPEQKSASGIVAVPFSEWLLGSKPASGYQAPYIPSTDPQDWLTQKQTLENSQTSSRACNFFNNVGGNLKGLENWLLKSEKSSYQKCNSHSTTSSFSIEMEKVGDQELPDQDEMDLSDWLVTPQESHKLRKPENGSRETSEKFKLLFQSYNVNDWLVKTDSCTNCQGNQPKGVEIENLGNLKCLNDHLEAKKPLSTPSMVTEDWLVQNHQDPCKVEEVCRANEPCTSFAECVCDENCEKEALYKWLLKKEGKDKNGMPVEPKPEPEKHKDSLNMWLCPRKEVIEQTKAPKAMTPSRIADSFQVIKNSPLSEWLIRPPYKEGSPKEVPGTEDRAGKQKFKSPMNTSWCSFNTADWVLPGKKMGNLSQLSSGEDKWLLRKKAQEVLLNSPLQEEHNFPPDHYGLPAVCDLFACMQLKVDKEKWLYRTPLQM

CN1CCN(c2ccc3nc(-c4cccc(N5CCc6cc(F)ccc6C5)c4)[nH]c3c2)CC1
Activity [1]: Active

CC(=O)N(O)CCCCCNC(=O)CCC(=O)N(O)CCCCCNC(=O)CCC(=O)N(O)CCCCCN [DEFEROXAMINE]
EC50 (AML12): 8.83 µM
